Results: US12544395B2, “Combination compositions comprising a beta-lactamase inhibitor and uses thereof” (priority 2018, dated 2026)
Values after ≈ are worked out from the molar mass of the structure shown.

What was measured:
[1] = tested on: K. pneumoniae UNT-023 (KPC-2); test: MIC vs. septicemia model strain; format: cell-based; details: Klebsiella pneumoniae, read-out: MIC vs. K. pneumoniae UNT-023 (KPC-2)
[2] = tested on: three strains of E. coli expressing TEM-1+CTX-M-15, CTX-M-15, and KPC-2+SHV-12; test: MIC against the UTI test strains; format: cell-based
[3] = tested on: 21 strains of Enterobacteriaceae expressing various beta-lactamases; test: MIC testing of thigh model strains; format: cell-based
[4] = tested on: ceftibuten-resistant Enterobacteriaceae expressing Class C (n=20); test: Checkerboard broth microdilution MIC, BLI concentration impact; format: cell-based; details: for MIC50: read-out: CTB MIC50; for MIC90: read-out: CTB MIC90
Protocol: (§1) Minimum inhibitory concentrations (MICs) were determined by broth microdilution method following CLSI guidelines. Tested strains were ceftibuten-resistant Enterobacteriaceae expressing ESBL (n=20), KPC (n=20), OXA-48 (n=20) and/or Class C (n=20) beta-lactamases. For each isolate, one microtiter plate was prepared and formatted as a checkerboard with the BLI (Compound 2 or clavulanic acid) titrated down the plate and ceftibuten titrated across the plate. Each agent was also tested alone. MICs were determined as the well with the lowest concentration of ceftibuten without visible growth at each concentration of BLI.

[5] = tested on: ceftibuten-resistant Enterobacteriaceae expressing ESBL (n=20); test: as above; format: cell-based; details: for MIC50: read-out: CTB MIC50; for MIC90: read-out: CTB MIC90
Protocol: as §1

[6] = tested on: ceftibuten-resistant Enterobacteriaceae expressing OXA-48 (n=20); test: as above; format: cell-based; details: for MIC50: read-out: CTB MIC50; for MIC90: read-out: CTB MIC90
Protocol: as §1

[7] = tested on: ceftibuten-resistant Enterobacteriaceae, All isolates; test: as above; format: cell-based; details: for MIC50: read-out: CTB MIC50; for MIC90: read-out: CTB MIC90
Protocol: as §1

KPC-2 = biological target: T1, KPC-2 (Klebsiella pneumoniae, UniProt Q9F663); test: Beta-lactamase enzyme inhibition (IC50); format: biochemical
T1 construct: expressed as native untagged proteins; made in house; host or cells: E. coli BL21(DE3)

SHV-5 = biological target: T2, SHV-5 (Klebsiella pneumoniae, UniProt P0A3M1); test: Beta-lactamase enzyme inhibition (IC50); format: biochemical
T2 construct: expressed as native untagged proteins; made in house; host or cells: E. coli BL21(DE3)

OXA-1 = biological target: T3, OXA-1 (Escherichia coli, UniProt P13661); test: Beta-lactamase enzyme inhibition (IC50); format: biochemical
T3 construct: expressed as native untagged proteins; made in house; host or cells: E. coli BL21(DE3)

VIM-2 = biological target: T4, VIM-2 (Escherichia coli, UniProt Q5U7L7); test: Beta-lactamase enzyme inhibition (IC50); format: biochemical
T4 construct: expressed as native untagged proteins; made in house; host or cells: E. coli BL21(DE3)
Protocol: For VIM-2 metallo beta-lactamase, the procedure was identical with the following exceptions, first the protein was not pH adjusted to pH 5 with 50 mM sodium acetate, second, the chromatography step was changed to a 5 ml Q sepharose anion exchange column pre-equilibrated with 50 mM Hepes pH 7.5, and elution of the protein was achieved by a linear gradient of NaCl (0-600 mM). Finally, the VIM-2 purification required a second run (3rd step) on the Q sepharose anion exchange column to achieve acceptable purity (>90%).

NDM-1 = biological target: T5, NDM-1 (Klebsiella pneumoniae, UniProt C7C422); test: Beta-lactamase enzyme inhibition (IC50); format: biochemical
T5 construct: expressed as native untagged proteins; made in house; host or cells: E. coli BL21(DE3)

IMP-1 = biological target: T6, IMP-1 (Serratia marcescens, UniProt P52699); test: Beta-lactamase enzyme inhibition (IC50); format: biochemical
T6 construct: expressed as native untagged proteins; made in house; host or cells: E. coli BL21(DE3)

p99 AmpC = biological target: T7, p99 AmpC (Enterobacter cloacae, UniProt P05364); format: biochemical
T7 construct: expressed as native untagged proteins; made in house; host or cells: E. coli BL21(DE3)

[8] = Single dose plasma pharmacokinetics (fasted and non-fasted); format: in vivo, Cynomolgus monkeys; details: male, Cynomolgus, cynomolgus monkey, iv, 5 mg/kg
[9] = Single ascending dose pharmacokinetics, Solutol HS-15:Water (10:90); format: in vivo, Beagle dogs; details: beagle, dog, plasma, iv, 10 mg/kg
[10] = Metabolic stability in liver S9; format: in vitro ADME, cynomolgus monkey; details: cynomolgus, liver S9; Monkey; test conc. 3 μM
[11] = Metabolic stability in liver S9; format: in vitro ADME, beagle dog; details: beagle, liver S9; Dog; test conc. 3 μM
[12] = Metabolic stability in intestinal S9; format: in vitro ADME; details: intestinal S9; Human; test conc. 3 μM
[13] = Metabolic stability in intestinal S9; format: in vitro ADME, beagle dog; details: beagle, intestinal S9; Dog; test conc. 3 μM
[14] = Metabolic stability in intestinal S9; format: in vitro ADME, CD-1 mouse; details: CD-1, intestinal S9; Mouse; test conc. 3 μM
[15] = Metabolic stability in plasma; format: in vitro ADME; details: Sprague-Dawley, Rat, test conc. 3 μM

For Nc1nc(/C(=C/CC(=O)O)C(=O)N[C@@H]2C(=O)N3C(C(=O)O)=CCS[C@H]23)cs1 [Ceftibuten, ceftibuten, reference compound], the MIC [1] was > 128 mg/L, the MIC ([2]; Escherichia coli, alone, read-out: Ceftibuten MICs) was 8 to 64 mg/L (≈ 19.5 to 156 µM) and the MIC ([3]; read-out: ceftibuten MICs) was ≥ 32 mg/L.
For O=C(O)[C@H]1/C(=C/CO)O[C@@H]2CC(=O)N21 [Clavulanic acid, clavulanic acid, reference compound], the MIC50 [4] was 2 mg/L, the MIC90 [4] was > 32 mg/L and the MIC50 [5] was 0.5 mg/L. For the same compound, the MIC90 [5] was 2 mg/L, the MIC50 [6] was 8 mg/L and the MIC90 [6] was > 32 mg/L. It also gave an MIC50 [7] of 4 mg/L and an MIC90 [7] of 32 mg/L.
CCC(=O)N[C@H]1Cc2cccc(C(=O)O)c2OB1O [Compound 2, (R)-2-hydroxy-3-propionamido-3,4-dihydro-2H-benzo[e][1,2]oxaborinine-8-carboxylic acid] showed an IC50 (KPC-2) of 0.08 µM, an IC50 (SHV-5) of 0.368 µM and an IC50 (OXA-1) of 0.066 µM. For the same compound, the IC50 (VIM-2) was 9.04 µM, the IC50 (NDM-1) was 38.1 µM and the IC50 (IMP-1) was > 100 µM. The “k−2” value (p99 AmpC) was 24 ± 0.5 10^−4 s^−1, the t1/2 (p99 AmpC) was 5.0 ± 0.1 min and the “ceftibuten MICs” value ([2]; with Compound 2 at a fixed concentration of 4 μg/mL) was <0.06 to 0.12 µg/mL. It also gave an MIC50 [4] of 0.25 mg/L, an MIC90 [4] of 1 mg/L and an MIC50 [5] of 0.25 mg/L. The MIC90 [5] was 0.5 mg/L, the MIC50 [6] was 0.125 mg/L and the MIC90 [6] was 0.5 mg/L. For the same compound, the MIC50 [7] was 0.25 mg/L, the MIC90 [7] was 1 mg/L and the AUC(0-inf) [8] was 38.4 µg·h/mL. For the same compound, the Cmax [8] was 38.6 µg/mL, the AUC(0-inf) [9] was 39.3 µg·h/mL and the Cmax [9] was 54.5 µg/mL. For the same compound, the half-life at 3 μM [10] was > 2 h, the half-life at 3 μM [11] was > 2 h and the half-life at 3 μM [12] was > 2 h. For the same compound, the half-life at 3 μM [13] was > 2 h, the half-life at 3 μM [14] was > 2 h and the half-life at 3 μM [15] was > 2 h. The “ceftibuten MICs” value ([3]; with Compound 2 fixed at 4 mg/L) was ≤ 2 µg/mL.
